The test system of one assay is human neutrophils. As to the kind of experiment: Human neutrophil superoxide generation (FMLP-stimulated, cytochrome C reduction). Format: cell-based. The following applies: for IC50: read-out: FMLP Induced Superoxide Generation, Inhibition IC50. The protocol:
The compounds of the invention are evaluated with respect to superoxide modulating activity according to the following assay procedure:
Human neutrophil superoxide generation: Superoxide generation by formyl-methionyl-leucyl-phenylalanine (FMLP)-stimulated neutrophils was quantitated by the reduction of cytochrome C (Badwey, J. A., Curnutte, J. T. and Karnovsky, M. L., cis-Polyunsaturated fatty acids induce high levels of superoxide production by human neutrophils. J. Biol. Chem. 256: 12640-12643, 1981.) To 5 million neutrophils in 2.85 ml of Krebs-Ringer phosphate buffer, pH 7.2, 50 ul of inhibitor (in 10% DMSO/buffer), and 50 ul ferricytochrome C (5 mM, stock) were added and preincubated for 3 minutes at 37° C. Absorption measurements at 550 nm were recorded at start of preincubation. Fifty ul FMLP (6 uM, stock) was added to initiate reaction. A plateau was reached within 3 minutes and this reading minus the initial reading (before addition of FMLP) was used to calculate nanomoles of superoxide generated based on a molar extinction coefficient of 2.1×10^4 cm^-1 mole^-1.
Isolation of human neutrophils: Human neutrophils were isolated from freshly drawn blood of healthy donors. Two ml of 5% dextran (MW 200,000-300,000) in saline was added to 10 ml aliquots of blood, mixed and placed upright for 45 min. at 37° C. Approx. 8-10 ml of the plasma-white cell suspension from the dextran sedimentation was layered on 3 ml of Ficol-paque in a 15 ml tube and centrifuged at 400 g for 30 min. The supernate, containing plasma and platelets, was discarded by aspiration, and the pellet, containing predominantly neutrophils, was resuspended in 1 ml saline. The suspension was transferred to a clean tube, and pooled with other aliquots of blood treated similarly. The pooled suspension was centrifuged at 350 g for 5 min. and supernate discarded. The pellet was resuspended in 5 ml of 0.05% NaCl with a plastic Pasteur pipette for 25 seconds to lyse contaminating red cells, then 5 ml of 1.75% NaCl added to regain isotonicity. The red cell lysing procedure was repeated, the cells suspended in appropriate buffer (depending on assay) and counted.

The target in the next assay is T1, 5-lipoxygenase (Rattus norvegicus, UniProt P12527).
T1 construct: The 100,000 x g supernatant fraction of Rat Basophilic Leukemia Cell Homogenate (RBL-1); endogenous in cells; host or cells: RBL-1 (rat basophilic leukemia) cells, 100,000 x g supernatant of homogenate
T1 sequence (P12527 1-673): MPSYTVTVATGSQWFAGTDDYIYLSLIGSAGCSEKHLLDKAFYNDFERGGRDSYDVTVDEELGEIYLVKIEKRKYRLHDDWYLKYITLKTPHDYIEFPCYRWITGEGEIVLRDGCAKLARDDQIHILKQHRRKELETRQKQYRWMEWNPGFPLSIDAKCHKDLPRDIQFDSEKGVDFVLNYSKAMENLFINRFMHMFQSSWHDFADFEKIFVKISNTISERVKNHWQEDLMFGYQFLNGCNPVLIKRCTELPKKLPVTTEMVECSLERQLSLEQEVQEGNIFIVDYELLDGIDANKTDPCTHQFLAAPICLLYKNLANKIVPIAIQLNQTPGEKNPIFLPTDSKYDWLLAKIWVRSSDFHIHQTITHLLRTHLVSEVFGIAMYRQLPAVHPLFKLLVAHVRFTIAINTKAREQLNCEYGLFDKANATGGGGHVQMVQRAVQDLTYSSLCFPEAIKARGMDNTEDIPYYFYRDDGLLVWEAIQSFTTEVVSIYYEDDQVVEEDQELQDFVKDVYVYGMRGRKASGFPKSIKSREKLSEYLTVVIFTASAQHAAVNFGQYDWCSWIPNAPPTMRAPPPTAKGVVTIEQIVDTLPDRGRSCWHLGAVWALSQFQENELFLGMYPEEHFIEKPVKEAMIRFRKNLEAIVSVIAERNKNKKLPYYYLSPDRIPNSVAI
As to the kind of experiment: Inhibition of 5-lipoxygenase, in vitro (5-HETE synthesis, RBL-1 100,000 x g supernatant). It counts as biochemical. The settings on record: for activation at 100 µM / activation at 10 µM: stimulation, read-out: 5-Lipoxygenase, Stimulated %. The protocol:
The compounds of the invention are evaluated with respect to 5-lipoxygenaseinhibition according to the following assay procedure.
Inhibition of 5-lipoxygenase, in vitro: anti-inflammatory, anti-allergy activities.
The 100,000 x g supernatant fraction of Rat Basophilic Leukemia Cell Homogenate (RBL-1) serves as a 5-lipoxygenase enzyme source. The enzyme is incubated with [1-^14 C)-arachidonic acid and Ca++ in the presence and absence of test compound. The product of 5-lipoxygenase, 5-hydroxyeicosatetraenoic acid (5-HETE), is separated by thin-layer chromatography an measured by radioactivity. A compound inhibiting 5-HETE synthesis by 30% or more is considered active at that concentration.
For comparison the compound of Formula XX, a known 5-lipoxygenase inhibitor described in U.S. Pat. No. 4,755,524 was used. [drawing 13]

The target in assay [1] is T2, Sheep Seminal Vesicle Microsome Cyclooxygenase (Ovis aries, UniProt P05979).
T2 construct: Lyophilized ovine microsome (approx. 1 mg) suspended in 2.9 ml Tris-HCl buffer, pH 8.2, containing 0.7 mM phenol were used as source; from tissue; host or cells: sheep seminal vesicle microsomes (lyophilized)
T2 sequence (P05979 25-600): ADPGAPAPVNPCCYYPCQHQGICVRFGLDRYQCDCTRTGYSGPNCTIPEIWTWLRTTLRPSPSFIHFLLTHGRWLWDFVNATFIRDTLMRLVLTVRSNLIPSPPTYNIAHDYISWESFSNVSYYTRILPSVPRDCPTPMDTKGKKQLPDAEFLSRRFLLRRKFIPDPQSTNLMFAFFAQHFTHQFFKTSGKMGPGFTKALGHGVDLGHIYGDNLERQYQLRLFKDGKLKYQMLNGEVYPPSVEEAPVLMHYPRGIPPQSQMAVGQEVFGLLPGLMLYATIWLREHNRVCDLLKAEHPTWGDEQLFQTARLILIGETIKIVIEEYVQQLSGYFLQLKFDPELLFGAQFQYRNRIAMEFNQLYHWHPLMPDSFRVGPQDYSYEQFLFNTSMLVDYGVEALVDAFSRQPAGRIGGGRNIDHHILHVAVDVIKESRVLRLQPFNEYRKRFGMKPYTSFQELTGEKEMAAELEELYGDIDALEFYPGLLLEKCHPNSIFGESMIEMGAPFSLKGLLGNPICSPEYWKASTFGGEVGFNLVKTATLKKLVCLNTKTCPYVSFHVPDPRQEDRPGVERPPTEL
As to the kind of experiment: Inhibition of Sheep Seminal Vesicle Microsome Cyclooxygenase. It counts as biochemical. The protocol:
The compounds of the present invention evaluated with respect to cyclooxygenase inhibition according to the following assay procedure. Inhibition of Sheep Seminal Vesicle Microsome Cyclooxygenase The assay was based on oxygen consumption during conversion of arachidonic acid to prostaglandin G2 catalyzed by cyclooxygenase Biochem. 11:3276-3285 (1972). Lyophilized ovine microsome (approx. 1 mg) suspended in 2.9 ml Tris-HCl buffer, pH 8.2, containing 0.7 mM phenol were used as source of arachidonate cyclooxygenase. The inhibitor, 50 μl in DMSO, was added and the mixture preincubated for 5 minutes at 37° C. Fifty μl of arachidonic acid (final conc. 50 μM) was added to start the reaction. The slopes of the initial rates of oxygen uptake, in the presence and absence of inhibitor, were compared to determine reaction inhibition. Percent inhibition was computed using the following formula: [formula]

[2] abbreviates: Homo sapiens, Neutrophil, % above control, read-out: FMLP Induced Superoxide Generation, Stimulation, % > control.

The structures appear in SMILES notation. Where only a bound is given, the exact number is not on record here.

Turning to `COC(=O)CS[C@@H]1CCCC[C@H]1Sc1cc(C(C)(C)C)cc(C(C)(C)C)c1` (relative stereo) [Example 4], the activation at 1 µM in the assay on human neutrophils (Homo sapiens, Neutrophil, 1 μM, % above control, read-out: FMLP Induced Superoxide Generation, Stimulation, % > control) came to 67%. Moreover, the activation at 10 µM in the assay with human neutrophils (setting [2]) was 133%. Moreover, the activation at 100 µM in the assay with human neutrophils (Homo sapiens, Neutrophil, 100 μM, % above control, read-out: FMLP Induced Superoxide Generation, Stimulation, % > control) turned out to be 167%.

As for `CC(C)(C)c1cc(S[C@@H]2CCCC[C@H]2SCC(=O)O)cc(C(C)(C)C)c1` (relative stereo) [Example 5, trans-[[2-[[3,5-bis(1,1-dimethylethyl)phenyl]thio]cyclohexyl]thio]acetic acid], the IC50 with human neutrophils (Homo sapiens, Neutrophil) is 1.1 µM; on 5-lipoxygenase it was 100 µM.

On to `O=C(O)CS[C@@H]1CCCC[C@H]1Sc1ccccc1` (relative stereo) [Example 7], for which, in assay [1], the “cyclooxygenase inhibition (statement in words)” value was “did not inhibit either 5-lipoxygenase or cyclooxygenase”. Moreover, the “Cyclooxygenase Inhibition (in words)” value in assay [1] (at 100 μM) is “Inactive”. The “superoxide generation (statement in words)” value (“superoxide generation” for short) in the assay with human neutrophils is listed as “did inhibit superoxide generation”. The IC50 in the assay on human neutrophils (Homo sapiens, Neutrophil) was 50 µM. The “5-lipoxygenase inhibition (statement in words)” value (“5-lipoxygenase inhibition” below) on 5-lipoxygenase is reported as “did not inhibit either 5-lipoxygenase or cyclooxygenase”. For the same molecule, the activation at 100 µM on 5-lipoxygenase (at 10^-4 M) amounted to 45%. Further, at 5-lipoxygenase (at 10^-5 M), the activation at 10 µM came to 27%.

`CC(C)(C)c1cccc(S[C@@H]2CCCC[C@H]2SCC(=O)O)c1` (relative stereo) [Example 11]: the IC50 in assay [1] was 2.9 µM; in the assay on human neutrophils (Homo sapiens, Neutrophil), 4.8 µM. The activation at 100 µM on 5-lipoxygenase (at 10^-4 M) worked out at 2.5%. For the same molecule, the activation at 10 µM on 5-lipoxygenase (at 10^-5 M) is 3.2%.

Turning to `O=C(O)CS[C@@H]1CCCC[C@H]1Sc1cccc(-c2ccccc2)c1` (relative stereo) [Example 15], the IC50 in assay [1] stood at 64 µM; in the assay with human neutrophils (Homo sapiens, Neutrophil), 2.8 µM. In addition, the inhibition at 100 µM on 5-lipoxygenase (at 10^-4 M, inhibition, read-out: 5-Lipoxygenase, Inhibited %) stood at 21.3%. Besides, the inhibition at 10 µM at 5-lipoxygenase (at 10^-5 M, inhibition, read-out: 5-Lipoxygenase, Inhibited %) is 14.9%.

`CN(CCc1ccccn1)C(=O)CS[C@@H]1CCCC[C@H]1Sc1cc(C(C)(C)C)cc(C(C)(C)C)c1` (relative stereo) [Example 16]: the “superoxide generation” value in the assay with human neutrophils was “stimulated superoxide generation”. Further, the activation at 10 µM in the assay with human neutrophils (setting [2]) was found to be 33%. The activation at 25 µM in the assay with human neutrophils (Homo sapiens, Neutrophil, 25 μM, % above control, read-out: FMLP Induced Superoxide Generation, Stimulation, % > control) worked out at 83%. For the same molecule, in the assay with human neutrophils (Homo sapiens, Neutrophil, 50 μM, % above control, read-out: FMLP Induced Superoxide Generation, Stimulation, % > control), the activation at 50 µM came out at 100%. Moreover, at 5-lipoxygenase, the “5-lipoxygenase inhibition” value is recorded as “inhibited 5-lipoxygenase” and the IC50 is 100 µM.

As to `CC(C)(C)c1cc(S[C@@H]2CCCC[C@H]2OCC(=O)O)cc(C(C)(C)C)c1` (relative stereo) [Example 17], the IC50 is 3.4 µM in the assay on human neutrophils (Homo sapiens, Neutrophil) and above 100 µM against 5-lipoxygenase.

Regarding `C[C@H](Sc1cc(C(C)(C)C)c(O)c(C(C)(C)C)c1)[C@@H](C)OCC(=O)O` (relative stereo) [Formula XX, reference compound], the “superoxide generation” value with human neutrophils was “inhibited both superoxide generation and 5-lipoxygenase”. The IC50 in the assay with human neutrophils (Homo sapiens, Neutrophil) stood at 11 µM. The “5-lipoxygenase inhibition” value at 5-lipoxygenase is “inhibited both superoxide generation and 5-lipoxygenase”.

The record behind these values is US5272178A, “Compounds of cyclic phenolic thioethers which are useful in stimulating and inhibiting superoxide generation” (G. D. Searle & Co., priority 1993, dated 1993).
